According to publication PMC6340938, “Three Novel ACE Inhibitory Peptides Isolated From Ginkgo biloba Seeds: Purification, Inhibitory Kinetic and Mechanism” (Frontiers in Pharmacology, 2019):
Read-outs that look alike come from different tables or passages of the source. Values belong to the molecule of their own block, whether it stands above or below them. Where no end group is shown, it is not given here.

Legend:
[1] = molecular target: T1, angiotensin converting enzyme (ACE) (Homo sapiens, UniProt P12821); assay: ACE inhibitory activity, HHL substrate, RP-HPLC of hippuric acid; format: biochemical; conditions: synthetic peptides, purity >95%; HHL 5 mM, borate pH 8.3, 0.3 M NaCl, 37°C, 45 min, ACE 50 mU/mL; RP-HPLC 228 nm; mean, n = 3
Description: This test was performed as per the descriptions are given by the previous report by [O’Loughlin et al. (2014)] with some modifications. Briefly, the substrate hippuryl-histidyl-leucine (HHL, 5 mM) and samples were mixed in 0.1 M Na2[B4O5(OH)4] (pH 8.3) with 0.3 M sodium chloride. Then after, 50 μL of sample and 150 μL of the substrate were added to a centrifuge tube, mixed and allowed to stand in water at 37°C for 5 min. Subsequently, the ACE solution (50 mU/mL) was added and incubated at 37°C for 45 min. The reaction was terminated by adding 250 μL of 1M HCl and the solution was filtered through […] nylon syringe filter before being analyzed by RP-HPLC (Waters, Milford, MA, United States) on an Inertsil ODS-3 (250 × 4.6 mm, 5 μm particle size). The mobile phase comprised of distilled water: acetonitrile = 75:25 (V/V, with 0.1% TFA) with a flow rate of 0.5 mL/min and detection at 228 nm. Captopril was used as a control and the inhibitory activity (%) was determined as below:
ACE inhibitory activity (%)=[(A−B)/A]×100
where A was the peak area of hippuric acid with the sample, B was without the sample.

[2] = molecular target: T1, angiotensin converting enzyme (ACE); assay: Kinetics of ACE inhibition, Lineweaver-Burk plot; format: biochemical; conditions: HHL 0.5, 1, 2, 5 mM, peptide 0, 15, 30 μM
Description: The kinetic inhibition model of G. biloba peptide was tested using the method of [Lin et al. (2017)]. Briefly, different concentrations of substrate HHL (0.5, 1, 2, and 5 mM) were allowed to react with ACE. The Lineweaver-Burk plot was based on the reciprocal of the reaction rate (1/v) and the substrate concentration (1/[s]). The intercepts on the X- and Y-axes represented the reciprocals of Km and Vmax, respectively.
FIGURE 5 The Lineweaver-Burk plot of the inhibitory effects on ACE activities of peptides. (A) TNLDWY, (B) RADFY, and (C) RVFDGAV. The ACE activities were determined in the absence and presence of different concentrations of the peptides (0, 15, and 30 μM).

ACE = conditions: 2017, cited from earlier work; for ACE inhibitory activity (in words): peptides containing hydrophobic amino acid (Leu), ref Lee and Hur; for Inhibition mode: ref Lin et al.
Text: According to report by [Hernández-Ledesma et al. (2011)], most of the ACE inhibiting peptides were short sequences consisting of 2–12 amino acids. In addition, the activity of the ACE-inhibiting peptide was strongly related to the pres ... || The mode of inhibition of ACE-inhibiting peptides was observed generally non-competitive, competitive, and mixed.

[3] = currently used blood pressure lowering drugs; ref Yu et al., 2018; cited from earlier work
Text: As per the World Health Organization estimate, CVD accounts for the mortality of more than 17.5 million people every year. Among the important characteristics of CVD, hypertension is an essential target for the prevention and treatment of CVD ([Celermajer et al., 2012]). […] Lately, signific ...

[4] = Qula casein and hazelnut peptides, Liu et al., 2018

T1 sequence (P12821 30-1306, species assumed): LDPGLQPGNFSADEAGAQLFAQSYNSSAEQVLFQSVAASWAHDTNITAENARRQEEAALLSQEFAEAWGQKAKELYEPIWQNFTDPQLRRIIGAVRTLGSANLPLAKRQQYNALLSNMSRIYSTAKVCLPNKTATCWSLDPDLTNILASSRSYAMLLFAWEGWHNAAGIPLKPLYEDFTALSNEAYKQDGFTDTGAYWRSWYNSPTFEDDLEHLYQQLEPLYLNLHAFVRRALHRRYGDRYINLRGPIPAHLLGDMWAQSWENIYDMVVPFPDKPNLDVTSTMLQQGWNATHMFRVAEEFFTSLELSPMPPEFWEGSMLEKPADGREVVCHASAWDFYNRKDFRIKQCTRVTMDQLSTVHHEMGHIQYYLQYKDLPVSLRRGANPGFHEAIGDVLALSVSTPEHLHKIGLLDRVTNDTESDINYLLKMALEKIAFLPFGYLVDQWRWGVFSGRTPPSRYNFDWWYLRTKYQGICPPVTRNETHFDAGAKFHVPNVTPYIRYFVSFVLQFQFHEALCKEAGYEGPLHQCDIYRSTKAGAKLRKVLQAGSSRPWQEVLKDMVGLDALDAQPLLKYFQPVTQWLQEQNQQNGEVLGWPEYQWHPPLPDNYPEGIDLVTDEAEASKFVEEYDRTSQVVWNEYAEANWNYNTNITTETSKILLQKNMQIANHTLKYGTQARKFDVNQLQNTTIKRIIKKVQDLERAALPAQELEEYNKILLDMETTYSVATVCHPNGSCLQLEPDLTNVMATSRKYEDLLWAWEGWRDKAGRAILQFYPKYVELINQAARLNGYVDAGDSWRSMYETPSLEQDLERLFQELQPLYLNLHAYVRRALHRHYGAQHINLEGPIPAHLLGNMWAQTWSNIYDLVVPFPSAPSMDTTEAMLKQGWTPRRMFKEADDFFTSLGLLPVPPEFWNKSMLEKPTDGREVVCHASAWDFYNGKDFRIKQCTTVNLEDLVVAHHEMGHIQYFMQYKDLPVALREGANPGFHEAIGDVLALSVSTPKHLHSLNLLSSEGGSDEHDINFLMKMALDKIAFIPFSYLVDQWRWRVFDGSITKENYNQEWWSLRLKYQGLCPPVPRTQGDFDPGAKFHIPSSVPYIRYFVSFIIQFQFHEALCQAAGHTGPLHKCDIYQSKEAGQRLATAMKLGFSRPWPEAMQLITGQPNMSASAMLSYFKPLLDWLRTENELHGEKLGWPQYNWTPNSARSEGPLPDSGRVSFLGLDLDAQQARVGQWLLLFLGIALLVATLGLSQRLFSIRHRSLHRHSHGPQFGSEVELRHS

IC50 [1]: 1930 µM
Molecule: TNLDWY [TNLDWY, Thr-Asn-Leu-Asp-Trp-Tyr]
Effect on Km [2]: Km did not change significantly with peptide concentration

Molecule: KPLL
ACE inhibitory activity (in words) (ACE): appreciable ACE inhibitory activity

Molecule: KYIPIQ [peptide from Qula casein]
Inhibition mode (ACE; peptides from Qula casein): competitive inhibition mode

Molecule: YLVR [hazelnut peptide]
Inhibition mode (ACE; [4]): non-competitive

Molecule: C[C@H](CS)C(=O)N1CCC[C@H]1C(=O)O [captopril]
Adverse reactions [3]: cough, rash, and headache

IC50 [1]: 1010 µM
Molecule: RVFDGAV [RVFDGAV, Arg-Val-Phe-Asp-Gly-Ala-Val]
Effect on Km [2]: Km increased with the increasing peptide concentration

Molecule: CCOC(=O)[C@H](CCc1ccccc1)N[C@@H](C)C(=O)N1CCC[C@H]1C(=O)O [enalapril]
Adverse reactions [3]: cough, rash, and headache

Molecule: LPLPLL [peptide from Qula casein]
Inhibition mode (ACE; peptides from Qula casein): competitive inhibition mode

IC50 [1]: 1350 µM
Molecule: RADFY [RADFY, Arg-Ala-Asp-Phe-Tyr]
Effect on Km [2]: Km increased with the increasing peptide concentration

Molecule: VLAQYK
ACE inhibitory activity (in words) (ACE): appreciable ACE inhibitory activity

Molecule: PFPGPIPN
Inhibition mode (ACE; [4]): non-competitive
